Laboratory results taken from patent US20090131308A1, “Splice Variants of ErbB Ligands, Compositions and Uses Thereof” (AGOS BIOTECH LTD., priority 2003, published 2009).
Entries after “also recorded” stand apart in the source; their conditions may differ. No end group written: not given here.

Columns and labels:
[1] = system: BaF/3 cells transfected with the EGFR (BaF/3-EGFR); test: Activatory ligand stimulated mitogenesis assay; format: cell-based; settings: for potentiation of mitogenesis of BaF/3-EGFR cells: titrating concentrations of variant ligand, preliminary results, data not shown
Protocol: BaF/3 cells transfected with the EGFR (BaF/3-EGFR; Walker et al, Growth Factors 16: 53-67, 1998) are washed three times to remove residual IL-3 and resuspended in RPMI 1640+10% FCS. Cells are then seeded into 96 well plates using a Biomek 2000 (Beckman) at 2×10^4 cells per 200 microlitres and incubated for 4 h at 37 C in 10% CO2. To determine the efficacy of this system with a positive control, cells are first grown with titrating concentrations of activatory ligand EGF alone, to determine the minimum amount of ligand required to achieve maximal or sub-maximal receptor-mediated mitogenesis for these cells. […] Titrating concentrations of ErbB variant ligands are added to the cells to test their mitogenic potential. In a similar manner, BaF/3 or different cells expressing a range of ErbB receptors, rendering them mitogenically responsive to ErbB ligand stimulation, are used to test these and other variant ligands for activatory ligand stimulated mitogenesis (exemplified in Harari et. al., 1999).

[2] = biological target: T1, soluble ErbB2 (amino acids 1-509) (Homo sapiens, UniProt P04626); test: BIAcore receptor binding assay, immobilized soluble ErbB2; settings: peptide up to 10 uM; BIAcore 3000, CM-5 chip; data not shown
T1 construct: soluble ErbB2 (amino acids 1-509)
Protocol: (§1) Biosensor analyses were performed using a BIAcore™ 3000. A CM-5 (research grade) sensor chip was immobilized with soluble EGFR (amino acids 1-501), soluble EGFR (amino acids 1-621) and soluble ErbB2 (amino acids 1-509) on flowcells 2, 3 and 4, respectively. Immobilizations were performed using amine coupling chemistry in 10 mM Sodium Acetate at pH 4.2. Varying concentrations (1.25 μM, 2.5 μM, 5 μM and 10 μM) of peptides were injected (30 μl) over the sensor surfaces in HBS running buffer (10 mM HEPES, 3.4 mM EDTA, 0.15M NaCl, 0.005% Tween 20, pH 7.4) at a flow rate of 5 μl/min. The surfaces were then regenerated by injecting 10 μl of 10 mM NaOH at a flow rate of 20 μl/min. The resulting sensor curves were subtracted against the blank channel (Flowcell 1) to yield the specific response.

[3] = system: soluble ErbB1 (soluble EGFR amino acids 1-501 and 1-621); test: BIAcore receptor binding assay, immobilized soluble EGFR; settings: peptide up to 10 uM; BIAcore 3000, CM-5 chip; data not shown
Protocol: as §1

Betacellulin = test: BIAcore ligand-ligand interaction, immobilized Betacellulin; format: binding, human or bovine; settings: peptide 0.3-10 μM (in some cases 50 μM); BIAcore 3000, blank channel subtracted; FIG. 6
Protocol: Biosensor analyses were performed using a BIAcore™ 3000. A CM-5 (research grade) sensor chip was immobilized with recombinant human or bovine EGF, TGF alpha and Betacellulin on flowcells 2, 3 and 4, respectively. Immobilizations were performed using amine coupling chemistry in 10 mM Sodium Acetate at pH 4.2. Varying concentrations (0.3 μM, 0.6 μM, 1.25 μM, 2.5 μM, 5 μM, 10 μM [and in some cases 50 μM]) of hNRG2(1-32), mEGF(1-32) & hEGF(1-32) were injected (30 μl) over the sensor surfaces in HBS running buffer (10 mM HEPES, 3.4 mM EDTA, 0.15M NaCl, 0.005% Tween 20, pH 7.4) at a flow rate of 5 μl/min. The surfaces were then regenerated by injecting 10 μl of 10 mM NaOH at a flow rate of 20 μl/min. The resulting sensor curves were subtracted against the blank channel (Flowcell 1) to yield the specific response.

binding to immobilized soluble ErbB2 [2] | binding to immobilized soluble ErbB1 [3] | Substance | mitogenic response of BaF/3-EGFR cells ([1]; positive control at a concentration of approximately 200 μM) | potentiation of mitogenesis of BaF/3-EGFR cells [1] | binding to immobilized Betacellulin (Betacellulin)
– | – | EGF: activatory ligand EGF purified from mouse salivary glands, positive control (NSYPGCPSSYDGYCLNGGVCMHIESLDSYTCNCVIGYSGDRCQTRDLRWWELR; Epidermal growth factor; UniProt P01132 977-1029, looked up) [reference compound] | sub-maximal to maximal mitogenic response | – | –
failed to demonstrate measurable binding | failed to demonstrate measurable binding | GHARKCNETAKSYCVNGGVCYYIEGINQLSCK-OH (also: air-oxidised refolding, disulfide pairing not given here) [hNRG2(1-32)] | – | do not potentiate mitogenesis | weak binding; also recorded: low affinity interaction
– | – | NSDSECPLSHDGYCLHDGVCMYIEALDKYACK-OH (not fully specified; C-terminal free acid) [hEGF(1-32)] | – | – | no binding
failed to demonstrate measurable binding | failed to demonstrate measurable binding | NSYPGCPSSYDGYCLNGGVCMHIESLDSYTCK-OH (C-terminal free acid) [mEGF(1-32)] | – | do not potentiate mitogenesis | weak binding; also recorded: low affinity interaction
